# pIC50: −log10 of the molar value.
# Assays:
# [1] = test system: triple negative breast tumour cells MDA-MB231; experiment: ATPlite luminescence ATP assay in MDA-MB231 cells (Example 5); type: cell-based; conditions: MDA-MB231, ATP assay after a 72h treatment, Figure 5A
# Description: Dose-response curves in triple negative breast tumour cells MDA-MB231 and IC50 values obtained from an ATP assay after a 72h treatment with CROMOC36, CROMOC36-DM1 and the unconjugated DM1 molecule is shown in Figure 5A. The x-axis indicates the drug concentration (nM) in log scale, and the y-axis indicates the % of cell viability as measured by the ATP levels in the treated cells relative to the DMSO control.
# The cytotoxic effect of CROMOC-DM1 conjugates was evaluated on the MDA-MB-231 cell line by means of the ATPlite Luminescence ATP Detection Assay System. The cytotoxic effect of the different CROMOC conjugated with DM-1 was compared to that of non-conjugated CROMOCs. Cells treated only with the medium were used as control. Briefly, the cells were seeded in black 96-well plates at a density of 2000 cells/well. After 24 h, cells were treated with increasing concentrations of the conjugates (range 0.02 - 500 nM in CROMOC, n=11) for 72 hours. To quantify ATP production, cells were treated following the manufacturer's instructions, and luminescence was quantified by means of a Victor Nivo multi-plate reader (Perkin Elmer, Waltham, MA, USA). The percentage of cell viability was determined as (luminescencetreated cells/luminescencecontrol cells) × 100. IC50 values were calculated using GraphPad Prism 9.0 (San Diego, CA, USA) by a nonlinear regression model.
# [2] = test system: tumour xenograft LIXF HEP3B (hepatocellular carcinoma); experiment: Orthotopic hepatocellular carcinoma xenograft, anti-tumour efficacy (Example 7); type: in vivo, NMRI nude mice; conditions: seven to eight mice per group, each substance at its one regimen
# Description: The experiment comprised a reference group (Group 1) dosed with phosphate buffered saline and four treatment groups (Groups 2 to 5). […] The daily dose was split, the daily dosing interval was 6 hours. Mice were either sacrificed individually when their general condition required sacrifice or at termination of the experiment. The group size at the start of dosing was seven to eight mice per group, bearing orthotopic growing LIXF HEP3B.
# [3] = Tolerability (mortality, body weight, skin) in the LIXF HEP3B xenograft study (Example 7); type: in vivo, NMRI nude mice
# Description: The experiment comprised a reference group (Group 1) dosed with phosphate buffered saline and four treatment groups (Groups 2 to 5). […] CROMOC62 was given subcutaneously every second week for 4 weeks at 32 (induction dosing on day 0) and 16 (day 14 and 28) mg/kg/d. Sorafenib was applied daily for 6 days in mono and combined therapy and additional 6 days (9-14) exclusively in monotherapy per oral at 200 mg/kg/d. The daily dose was split, the daily dosing interval was 6 hours. Mice were either sacrificed individually when their general condition required sacrifice or at termination of the experiment. The group size at the start of dosing was seven to eight mice per group, bearing orthotopic growing LIXF HEP3B. […] CROMOC62 was given at one dose levels (32 mg/kg on day 0 and 16 mg/kg/d on days 14 and 28) in monotherapy or in combination with sorafenib which was given at one dose level (200 mg/kg/d on days 0-5). The effect of sorafenib monotherapy was also assessed (200 mg/kg/d on day 0-5 and 9-14).
Compound,pIC50 [1],complete remissions (number of mice) [2],partial remissions (number of mice) [2],"mortalities ([3]; LIXF HEP3B study, seven to eight mice per group, each substance at its one regimen)","maximum body weight loss ([3]; on day 16, sorafenib 12x200 mg/kg/d per oral) [%]"
"COc1cc2cc(c1Cl)N(C)C(=O)C[C@H](OC(=O)[C@H](C)N(C)C(=O)CCS)[C@]1(C)O[C@H]1[C@H](C)[C@@H]1C[C@@](O)(NC(=O)O1)[C@H](OC)/C=C/C=C(\C)C2 [DM1, DM1 Maytansinoid]",~9.02,,,,
CNC(=O)c1cc(Oc2ccc(NC(=O)Nc3ccc(Cl)c(C(F)(F)F)c3)cc2)ccn1 [sorafenib],,five,two,One out of eight,2.5

# Source: patent EP4480497A1, “BIO-CONJUGATES FOR ONCOLOGY” (priority 2023, dated 2024)
